For orientation: IC50 means the point on the concentration scale where inhibition reaches its midpoint. Low readings indicate higher potency, high ones lower potency. As a reminder, the half-life is how long it takes for the measured level to halve. A lower half-life goes with fast loss. One may read the bioavailability as dose-corrected exposure relative to a reference, in per cent. The low end stands for little systemic uptake, the high end for much systemic uptake. What is called CLint scaled is the capacity of the preparation to metabolise the compound, expressed as a volume cleared per time. A higher CLint scaled goes with faster metabolism. Usually fraction unbound stands for free concentration divided by total concentration.

Each structure is given as a SMILES string. Where only a bound is given, the exact number is not on record here.

Data set [1] has as its system Gabrg2^+/Q390X mice. In words: EEG spike-wave discharges (SWD) in Gabrg2+/Q390X mice after 14 days dosing. In kind it is in vivo, mouse. The protocol:
(FIG. 4A). […] . (FIG. 4B). In 4B, the mice were recorded for 24 hrs for EEGs and a uniform 5-min of EEGs was scored for each hour. The SWDs with duration >1 sec were quantified.

In data set [2] the target is T1, GABAA α1β2γ2(R82Q) receptors (Homo sapiens, UniProt P14867+P18507+P47870, R82Q).
T1 construct: expressed in transfected cells; host or cells: HEK 293T
T1 sequence (P14867 28-456): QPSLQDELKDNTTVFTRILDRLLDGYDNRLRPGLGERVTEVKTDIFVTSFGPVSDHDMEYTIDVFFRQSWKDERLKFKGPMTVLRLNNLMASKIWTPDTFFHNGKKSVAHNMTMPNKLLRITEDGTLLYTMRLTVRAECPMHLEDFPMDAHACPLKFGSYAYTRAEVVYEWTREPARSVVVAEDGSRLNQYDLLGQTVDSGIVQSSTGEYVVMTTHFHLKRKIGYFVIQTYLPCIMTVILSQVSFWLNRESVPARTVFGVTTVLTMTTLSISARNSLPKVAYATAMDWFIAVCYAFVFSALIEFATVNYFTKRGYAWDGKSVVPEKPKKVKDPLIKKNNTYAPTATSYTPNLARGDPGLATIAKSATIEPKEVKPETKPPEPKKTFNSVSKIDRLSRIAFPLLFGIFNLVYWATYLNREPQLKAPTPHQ
T1 sequence (P47870 25-512 limits assumed): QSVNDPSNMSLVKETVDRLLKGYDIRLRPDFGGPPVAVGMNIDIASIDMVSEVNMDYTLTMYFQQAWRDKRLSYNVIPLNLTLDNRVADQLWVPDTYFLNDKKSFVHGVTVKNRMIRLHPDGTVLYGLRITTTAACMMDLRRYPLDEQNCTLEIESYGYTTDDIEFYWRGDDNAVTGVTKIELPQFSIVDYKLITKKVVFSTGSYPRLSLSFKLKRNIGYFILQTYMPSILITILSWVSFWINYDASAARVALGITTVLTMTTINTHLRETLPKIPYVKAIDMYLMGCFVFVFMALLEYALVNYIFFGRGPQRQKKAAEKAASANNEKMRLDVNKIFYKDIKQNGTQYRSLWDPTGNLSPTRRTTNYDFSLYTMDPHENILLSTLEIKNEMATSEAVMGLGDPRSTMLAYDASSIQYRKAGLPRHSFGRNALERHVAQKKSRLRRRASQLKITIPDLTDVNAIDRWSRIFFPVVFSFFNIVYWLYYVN
T1 sequence (P18507 40-467 isoform P18507-1 R82Q limits assumed): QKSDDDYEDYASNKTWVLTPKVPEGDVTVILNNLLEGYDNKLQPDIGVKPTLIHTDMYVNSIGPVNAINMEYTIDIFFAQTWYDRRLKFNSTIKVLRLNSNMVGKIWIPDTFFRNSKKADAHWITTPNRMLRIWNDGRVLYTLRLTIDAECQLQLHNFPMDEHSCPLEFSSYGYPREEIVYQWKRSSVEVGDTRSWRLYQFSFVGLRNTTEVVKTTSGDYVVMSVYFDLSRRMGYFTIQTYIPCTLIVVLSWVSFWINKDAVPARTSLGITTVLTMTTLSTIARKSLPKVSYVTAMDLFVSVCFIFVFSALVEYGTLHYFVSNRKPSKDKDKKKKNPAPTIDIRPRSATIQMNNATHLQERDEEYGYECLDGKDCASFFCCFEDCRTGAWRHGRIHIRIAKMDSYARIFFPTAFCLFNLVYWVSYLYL
Kind of data set: Patch clamp current amplitude, α1β2γ2(R82Q) receptors in HEK 293T cells. The data set is classed as cell-based. As to conditions: 1 μm, 4 hrs; GABA 1 mM. Here is the method:
(§1) HEK 293T cells were transfected with the human GABAA receptor α1, β2 subunits with the wild-type γ2s, the mutant γ2s(Q390X) or γ2s(R82Q) subunits for 48 hrs. […] A. Lifted whole cells were recorded with the application of GABA 1 mM for 6 sec. Cells was voltage clamped at −50 mV.
(§2) HEK 293T cells were transfected with the human GABAA receptor α1, β2 subunits with the wild-type γ2s, the mutant γ2s(Q390X) or γ2s(R82Q) subunits for 48 hrs.
For orientation: In patch-clamp work, channel activity is measured electrically.

Data set [3] concerns the target CYP 2C19 (Homo sapiens, UniProt P33261). In words: biochemical.
A short description of data set [4]: In vivo exposure (IV and PO) in rat.
Data set [5] is described as follows: Hepatic microsomal clearance (mouse). In kind it is in vitro ADME. The settings on record: liver microsomes, pH 7.4. The protocol:
Intrinsic clearance and predicted hepatic clearance: Intrinsic clearance will be determined using the substrate depletion approach. Reactions (0.3 mL) will be conducted using a Tecan EVO (San Jose, Calif.) in 96-well polypropylene cluster tubes with a temperature controlled water-jacketed aluminum plate holder held at 37° C. Incubations will be performed in triplicate in 0.1 M potassium phosphate buffer (pH 7.4), 3 mM MgCl2, 1 μM tizanidine, and 1 mg/mL liver microsomes. After incubation mixtures are equilibrated for 3 min at 37° C., reactions will be initiated with 10 mM NADPH to give a final NADPH concentration of 1 mM. At 0, 3, 7, 15, 25, and 45 min, a 25 μL aliquot will be removed from the reactions and delivered into 125 μL of acetonitrile containing an internal standard. The quench plates will then be centrifuged at 3,000×g for 10 min and an aliquot of the supernatants added to an injection plate with an equal volume of water. Samples will then be analyzed using LC/MS/MS.
Intrinsic clearance is calculated as: […]
Species-specific parameters for mouse and human liver protein content will be used. The predicted hepatic clearance will then be estimated using species-specific liver blood flow values: […]
For orientation: Microsomes from liver hold many membrane-bound enzymes, among them those of drug oxidation.

For data set [6] the following is noted: rats; cited from earlier work.
The subject of data set [7] is synaptic scaffold protein gephyrin. In words: Gephyrin staining in brain sections of Gabrg2+/Q390X mice. In kind it is in vivo, mouse. As to conditions: 0.3 mg/kg for 14 days. The text has this: Synaptosomes from mouse forebrains were isolated by subcellular fractionation^7. The samples were then fractionated by SDS-PAGE and immunoblotted by rabbit polyclonal anti-γ2 subunit antibody and synaptic scaffold proteins including gephyrin, collybistin, synaptogamin 1 and neuroligin II. The γ2 subunit protein and synaptic scaffold proteins were reduced in the Gabrg2^+/Q390X (het) mice. (FIG. 18A). […] The sections were then stained with rabbit anti-γ2 subunit (green) and mouse monoclonal anti-gephyrin (red) antibodies. The nuclei were stained with TO-PRO-3. (FIG. 18B). The raw fluorescence values of gephyrin was measured by ImageJ. […] (FIG. 18C).

In data set [8] the target is CYP 1A2 (Homo sapiens, UniProt P05177). In words: biochemical.
Chain of CYP 1A2 (P05177 whole entry): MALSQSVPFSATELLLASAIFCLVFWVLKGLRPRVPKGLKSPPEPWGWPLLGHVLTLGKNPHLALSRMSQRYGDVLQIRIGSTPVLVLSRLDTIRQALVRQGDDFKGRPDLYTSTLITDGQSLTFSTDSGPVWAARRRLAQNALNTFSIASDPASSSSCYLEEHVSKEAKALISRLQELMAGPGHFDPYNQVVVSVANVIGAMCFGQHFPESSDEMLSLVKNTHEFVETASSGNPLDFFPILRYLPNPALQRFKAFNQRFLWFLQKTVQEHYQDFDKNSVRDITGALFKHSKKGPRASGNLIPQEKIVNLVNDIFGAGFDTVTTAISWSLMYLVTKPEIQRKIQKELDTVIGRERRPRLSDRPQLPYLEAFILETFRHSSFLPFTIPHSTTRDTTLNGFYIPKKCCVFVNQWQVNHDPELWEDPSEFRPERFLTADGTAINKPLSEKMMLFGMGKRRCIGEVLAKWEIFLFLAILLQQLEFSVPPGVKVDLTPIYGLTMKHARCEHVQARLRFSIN
In data set [9] the test system is Gabrb3^+/− mice. In words: Barnes maze, Gabrb3+/- mice. The data set is classed as in vivo, mouse. The settings on record: 0.3 mg/kg IP for 2 weeks, 6-8 months old. The protocol: Flow chart in FIG. 13A depicts an overview of the Barnes maze. In training trials which are considered as learning test, time spent to locate the target hole was recorded and quantified for each day in each mouse genotype. In probe trials which are considered as memory test, an hour after the last training trial, each mouse was allotted a 300 sec session to find the target hole. […]. The total time spent at each of the 12 holes was assessed.

Data set [10] addresses T2, GABAA α1β2γ2(Q390X) receptors (Homo sapiens, UniProt P14867+P18507+P47870, DEL390-467).
T2 construct: expressed in transfected cells; host or cells: HEK 293T
Kind of data set: Patch clamp current amplitude, α1β2γ2(Q390X) receptors in HEK 293T cells. In kind it is cell-based. As to conditions: 1 μm, 4 hrs; GABA 1 mM. The protocol: as §1, §2

A short description of data set [11]: Plasma protein binding. The settings on record: read-out: fraction unbound in plasma (fuplasma). The data set is classed as in vitro ADME.
For data set [12], the system named is GABAA receptor α1 and γ2 subunits. In words: Surface and total GABAA receptor subunit expression in Gabrg2+/Q390X mice. In kind it is in vivo, mouse. Here is the method:
As shown in FIG. 14A upper panel, the surface proteins (FIG. 14A) from the live mouse brain slices were biotinylated and analyzed by SDS-PAGE and immunoblotted with anti-γ2 or anti-al subunit antibody. In the lower panel, the protein from total lysates of cortex was analyzed by SDS-PAGE and immunoblotted with anti-γ2 subunit antibody. LC is the loading control GAPDH in the blots. FIG. 14B charts the protein IDVs of surface wild-type γ2 or al subunits (upper panel) or total level wild-type γ2 subunits (lower panel) were normalized to its loading control and then to that in untreated wild-type mice which was arbitrarily taken as 1.

Data set [13] concerns the target CYP 2C9 (Homo sapiens, UniProt P11712). In words: biochemical.

T2 sequence (P14867 28-456, stated change not applied): as the sequence (P14867 28-456) above
T2 sequence (P47870 26-512, stated change not applied): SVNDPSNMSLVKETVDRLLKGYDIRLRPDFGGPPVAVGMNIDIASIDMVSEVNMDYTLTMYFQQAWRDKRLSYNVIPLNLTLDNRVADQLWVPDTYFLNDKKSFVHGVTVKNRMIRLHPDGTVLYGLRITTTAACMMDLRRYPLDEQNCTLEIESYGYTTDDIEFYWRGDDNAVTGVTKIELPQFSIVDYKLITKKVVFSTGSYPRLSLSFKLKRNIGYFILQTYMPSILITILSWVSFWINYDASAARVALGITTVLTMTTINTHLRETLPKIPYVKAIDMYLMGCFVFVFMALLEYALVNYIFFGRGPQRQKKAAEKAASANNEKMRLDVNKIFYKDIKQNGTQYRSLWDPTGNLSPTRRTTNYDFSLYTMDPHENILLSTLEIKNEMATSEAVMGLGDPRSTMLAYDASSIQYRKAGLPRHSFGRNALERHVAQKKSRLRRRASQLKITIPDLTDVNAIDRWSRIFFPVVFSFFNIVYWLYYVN
T2 sequence (P18507 40-389 isoform P18507-1 limits assumed, stated change not applied): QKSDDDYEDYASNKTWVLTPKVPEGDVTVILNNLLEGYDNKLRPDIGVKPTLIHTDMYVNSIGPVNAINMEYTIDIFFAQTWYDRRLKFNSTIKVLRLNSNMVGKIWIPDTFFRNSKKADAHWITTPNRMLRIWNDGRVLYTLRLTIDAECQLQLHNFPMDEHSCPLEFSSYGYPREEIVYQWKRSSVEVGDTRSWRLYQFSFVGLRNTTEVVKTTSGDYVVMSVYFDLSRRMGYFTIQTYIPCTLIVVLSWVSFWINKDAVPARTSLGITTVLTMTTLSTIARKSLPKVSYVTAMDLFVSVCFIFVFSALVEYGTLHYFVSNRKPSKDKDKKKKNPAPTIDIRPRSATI
Chain of CYP 2C9 (P11712 whole entry): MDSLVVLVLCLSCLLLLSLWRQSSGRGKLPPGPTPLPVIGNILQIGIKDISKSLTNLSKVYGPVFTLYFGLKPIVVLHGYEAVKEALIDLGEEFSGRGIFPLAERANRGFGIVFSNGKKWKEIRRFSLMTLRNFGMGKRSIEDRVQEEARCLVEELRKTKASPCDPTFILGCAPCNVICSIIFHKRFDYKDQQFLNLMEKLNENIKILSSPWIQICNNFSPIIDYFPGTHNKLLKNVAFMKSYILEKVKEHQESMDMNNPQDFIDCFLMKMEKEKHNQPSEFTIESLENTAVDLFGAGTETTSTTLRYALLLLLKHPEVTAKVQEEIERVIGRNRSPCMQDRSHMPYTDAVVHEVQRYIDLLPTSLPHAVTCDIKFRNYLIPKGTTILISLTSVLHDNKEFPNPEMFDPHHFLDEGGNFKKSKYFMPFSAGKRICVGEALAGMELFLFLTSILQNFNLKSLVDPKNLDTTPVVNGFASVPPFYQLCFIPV
Chain of CYP 2C19 (P33261 whole entry): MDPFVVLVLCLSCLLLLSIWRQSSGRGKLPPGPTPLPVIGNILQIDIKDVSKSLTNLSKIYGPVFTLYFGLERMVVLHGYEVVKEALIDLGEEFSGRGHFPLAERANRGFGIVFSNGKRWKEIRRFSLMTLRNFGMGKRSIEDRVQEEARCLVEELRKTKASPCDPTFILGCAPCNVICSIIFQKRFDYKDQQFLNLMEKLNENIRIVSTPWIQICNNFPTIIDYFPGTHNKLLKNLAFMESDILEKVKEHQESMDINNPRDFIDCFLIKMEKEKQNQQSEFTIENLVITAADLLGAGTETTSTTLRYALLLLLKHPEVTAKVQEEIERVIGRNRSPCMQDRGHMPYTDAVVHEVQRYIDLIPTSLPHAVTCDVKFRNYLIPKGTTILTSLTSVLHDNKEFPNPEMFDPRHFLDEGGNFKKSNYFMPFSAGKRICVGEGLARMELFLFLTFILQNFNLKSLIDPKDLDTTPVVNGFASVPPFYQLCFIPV

For `CC1=C(O)C(=O)C=C2C1=CC=C1[C@@]2(C)CC[C@@]2(C)[C@@H]3C[C@](C)(C(=O)O)CC[C@]3(C)CC[C@]12C` [Celastrol, 3-Hydroxy-9β,13α-dimethyl-2-oxo-24,25,26-trinoroleana-1(10),3,5,7-tetraen-29-oic acid], the efficacy and tolerability result in data set [1] (0.3 mg/kg IP daily for 14 days) is “good efficacy and tolerability”. The seizures result in data set [1] (1 and 5 mg/kg via oral gavage) is on record as “seizure reduction”. Besides, the “frequency of SWDs” value in [1] (IP or oral gavage daily for 14 days, SWDs >1 sec, 24 hrs EEG) is “dose dependently reduced”. Besides, the current amplitude entry in data set [2] and in [10] was “increased” throughout. Besides, the IC50 is greater than 10 µM in data set [3], greater than 10 µM in [8] and 4.88 µM in [13]. Moreover, the half-life in data set [4] was 10 h. In data set [4] (po), this compound showed a bioavailability of 7.8%. Besides, the CLint scaled in data set [5] came to 160 mL/min/kg. For the same compound, the “oral bioavailability (reported)” value in data set [6] is reported as 17.1%. Besides, the gephyrin puncta entry in data set [7] is “increased gephyrin puncta”. For the same compound, the “time spent at target hole in probe trial” value in data set [9] is listed as “spent more time in the target hole area”. The fraction unbound in data set [11] was less than 0.022. Further, the “surface and total α1 and γ2 subunits” value in [12] (0.3 mg/kg IP for 14 days, n=4 mice) was “increase of both the surface and total α1 and γ2 subunits were greater in the mutant mice than in the wildtype”. The “increase of surface γ2 subunits compared with mutant mice treated with vehicle” value in [12] (0.3 mg/kg, ip) was 40-50%.

Values taken from patent US20200000752A1, “Method for Treating Epilepsy” (Vanderbilt University, priority 2016, published 2020).
